Results published in US8952024B2, “Herbicidal pyrimidone derivatives” (E I du Pont de Nemours and Company, priority 2009, dated 2015).

Columns and labels:
Format in all cases: in vivo
[1] = system: canarygrass (Phalaris minor); experiment: Test B postemergence plant response; settings: Postemergence
Summary of the method: (§1)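 Plants at the 1- to 4-leaf stage (2 to 18 cm tall), grown in pots of peat moss/vermiculite medium with wetting agent and starter nutrients, received postemergence applications of test chemicals. After 13 to 15 days in a greenhouse, injury was rated visually against untreated controls on a 0 (no effect) to 100 (complete control) scale.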

[2] = system: winter barley (Hordeum vulgare); experiment: Test B postemergence plant response; settings: Postemergence
Summary of the method: as §1

[3] = system: windgrass (Apera spica-venti); experiment: Test B postemergence plant response; settings: Postemergence, scale 0 (no effect) to 100 (complete control)
Summary of the method: as §1

[4] = system: chickweed (Stellaria media); experiment: Test B postemergence plant response; settings: Postemergence
Summary of the method: as §1

corn (Zea mays) = experiment: Test B pre-/postemergence plant response
Summary of the method: (§2)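 Greenhouse herbicide screen. Pre- and postemergence (1- to 4-leaf) spray of compound in solvent/surfactant mixture; loam–sand soil for pre, peat/vermiculite medium for post. Visual control rating 0–100 at 13 to 15 days after treatment.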

[5] = system: blackgrass (Alopecurus myosuroides); experiment: Test B pre-/postemergence plant response
Summary of the method: as §2

[6] = system: velvetleaf (Abutilon theophrasti); experiment: Test B pre-/postemergence plant response
Summary of the method: as §2

[7] = system: yellow nutsedge (Cyperus esculentus); experiment: Test B pre-/postemergence plant response
Summary of the method: as §2

[8] = system: ragweed (common ragweed, Ambrosia elatior); experiment: Test B pre-/postemergence plant response
Summary of the method: as §2

[9] = system: Surinam grass (Brachiaria decumbens); experiment: Test B pre-/postemergence plant response
Summary of the method: as §2

[10] = system: lambsquarters (Chenopodium album); experiment: Test B pre-/postemergence plant response
Summary of the method: as §2

[11] = system: large crabgrass (Digitaria sanguinalis); experiment: Test B pre-/postemergence plant response
Summary of the method: as §2

[12] = system: bermudagrass (Cynodon dactylon); experiment: Test B pre-/postemergence plant response
Summary of the method: as §2

[13] = system: johnsongrass (Sorghum halepense); experiment: Test B pre-/postemergence plant response
Summary of the method: as §2

wild oat (Avena fatua) = experiment: Test B pre-/postemergence plant response
Summary of the method: as §2

[14] = system: woolly cupgrass (Eriochloa villosa); experiment: Test B pre-/postemergence plant response
Summary of the method: as §2

soybean (Glycine max) = experiment: Test B pre-/postemergence plant response
Summary of the method: as §2

[15] = system: Italian ryegrass (Lolium multiflorum); experiment: Test B pre-/postemergence plant response
Summary of the method: as §2

[16] = 31 g ai/ha, scale 0 to 100 (0 no effect, 100 complete control)
[17] = 62 g ai/ha, scale 0 (no effect) to 100 (complete control), 13 to 15 days
[18] = 125 g ai/ha, visual rating after 13 to 15 days, scale 0 (no effect) to 100 (complete control)
[19] = 250 g ai/ha, Preemergence, 0 to 100 scale
[20] = Postemergence, 31 g ai/ha, scale 0 to 100 (0 no effect, 100 complete control)
[21] = Postemergence, 62 g ai/ha, scale 0 (no effect) to 100 (complete control), 13 to 15 days
[22] = Postemergence, 125 g ai/ha, visual rating after 13 to 15 days, scale 0 (no effect) to 100 (complete control)
[23] = Postemergence, 250 g ai/ha, scale 0 to 100
[24] = Preemergence, 31 g ai/ha, scale 0 to 100 (0 no effect, 100 complete control)
[25] = Preemergence, 62 g ai/ha, scale 0 to 100, 0 no effect, 100 complete control
[26] = Preemergence, 125 g ai/ha, 0 to 100 scale

Cc1cccc(-n2c(-c3cccc(Cl)c3)ncc(C(=O)C3=C(O)CCCC3=O)c2=O)c1 [Compound 45]
35: Plant response rating, Ryegrass, Italian [15, 22]
75: Plant response rating, Chickweed [4, 16] | Plant response rating, Surinam Grass [9, 21] | Plant response rating, Crabgrass, Large [11, 21] | Plant response rating, Crabgrass, Large [11, 22] | Johnsongrass plant response rating [13, 26] | Plant response rating, Cupgrass, Woolly [14, 19] | Plant response rating, Cupgrass, Woolly [14, 21] | Plant response rating, Cupgrass, Woolly [14, 22]
85: Plant response rating, Chickweed [4, 17] | Velvetleaf plant response rating [6, 26] | Plant response rating, Ragweed [8, 21] | Crabgrass, Large plant response rating [11, 23] | Plant response rating, Bermudagrass [12, 21] | Plant response rating, Johnsongrass [13, 19]
25: Blackgrass plant response rating [5, 23]
30: Plant response rating, Canarygrass [1, 18] | Canarygrass plant response rating ([1]; 250 g ai/ha, scale 0 to 100) | Plant response rating, Ryegrass, Italian [15, 21]
55: Plant response rating, Oat, Wild (wild oat (Avena fatua); [21])
100: Chickweed plant response rating ([4]; 250 g ai/ha, scale 0 to 100) | Plant response rating, Lambsquarters [10, 19] | Plant response rating, Lambsquarters [10, 22] | Lambsquarters plant response rating [10, 23] | Plant response rating, Lambsquarters [10, 24] | Plant response rating, Lambsquarters [10, 25] | Lambsquarters plant response rating [10, 26] | Plant response rating, Crabgrass, Large [11, 19] | Crabgrass, Large plant response rating [11, 26] | Plant response rating, Bermudagrass [12, 19] | Bermudagrass plant response rating [12, 23] | Plant response rating, Bermudagrass [12, 25] | Bermudagrass plant response rating [12, 26] | Johnsongrass plant response rating [13, 23]
10: Plant response rating, Canarygrass [1, 16] | Plant response rating, Canarygrass [1, 17] | Plant response rating, Corn (corn (Zea mays); [20]) | Plant response rating, Blackgrass [5, 22] | Plant response rating, Nutsedge, Yellow [7, 21]
45: Plant response rating, Corn (corn (Zea mays); [21]) | Plant response rating, Nutsedge, Yellow [7, 22] | Plant response rating, Ragweed [8, 24] | Plant response rating, Surinam Grass [9, 24] | Plant response rating, Crabgrass, Large [11, 24] | Plant response rating, Johnsongrass [13, 25] | Plant response rating, Cupgrass, Woolly [14, 24] | Plant response rating, Cupgrass, Woolly [14, 25]
0: Plant response rating, Corn (corn (Zea mays); [19]) | Plant response rating, Corn (corn (Zea mays); [24]) | Plant response rating, Corn (corn (Zea mays); [25]) | Corn plant response rating (corn (Zea mays); [26]) | Plant response rating, Blackgrass [5, 24] | Plant response rating, Blackgrass [5, 25] | Blackgrass plant response rating [5, 26] | Plant response rating, Velvetleaf [6, 24] | Plant response rating, Nutsedge, Yellow [7, 24] | Plant response rating, Johnsongrass [13, 24] | Plant response rating, Oat, Wild (wild oat (Avena fatua); [24]) | Oat, Wild plant response rating (wild oat (Avena fatua); [26]) | Plant response rating, Soybean (soybean (Glycine max); [19]) | Plant response rating, Soybean (soybean (Glycine max); [24]) | Soybean plant response rating (soybean (Glycine max); [26]) | Plant response rating, Ryegrass, Italian [15, 19] | Plant response rating, Ryegrass, Italian [15, 24] | Ryegrass, Italian plant response rating [15, 26]
95: Plant response rating, Velvetleaf [6, 19] | Plant response rating, Ragweed [8, 19] | Plant response rating, Ragweed [8, 22] | Plant response rating, Surinam Grass [9, 22] | Plant response rating, Crabgrass, Large [11, 25] | Plant response rating, Bermudagrass [12, 22] | Plant response rating, Soybean (soybean (Glycine max); [21])
65: Plant response rating, Crabgrass, Large [11, 20]
98: Plant response rating, Chickweed [4, 18] | Plant response rating, Surinam Grass [9, 19] | Surinam Grass plant response rating [9, 26] | Plant response rating, Lambsquarters [10, 21] | Plant response rating, Bermudagrass [12, 24] | Plant response rating, Johnsongrass [13, 22] | Plant response rating, Soybean (soybean (Glycine max); [22])
60: Plant response rating, Windgrass ([3]; 62 g ai/ha, 13 to 15 days) | Plant response rating, Corn (corn (Zea mays); [22]) | Plant response rating, Oat, Wild (wild oat (Avena fatua); [22]) | Cupgrass, Woolly plant response rating [14, 26]
5: Plant response rating, Barley [2, 16] | Plant response rating, Barley [2, 17] | Plant response rating, Barley [2, 18] | Barley plant response rating ([2]; 250 g ai/ha, scale 0 to 100) | Plant response rating, Blackgrass [5, 19] | Plant response rating, Blackgrass [5, 20] | Plant response rating, Blackgrass [5, 21] | Plant response rating, Oat, Wild (wild oat (Avena fatua); [19])
20: Nutsedge, Yellow plant response rating [7, 26]
80: Corn plant response rating (corn (Zea mays); [23]) | Plant response rating, Velvetleaf [6, 21] | Ragweed plant response rating [8, 26] | Plant response rating, Bermudagrass [12, 20] | Cupgrass, Woolly plant response rating [14, 23]
90: Plant response rating, Velvetleaf [6, 22] | Plant response rating, Johnsongrass [13, 21]
70: Plant response rating, Windgrass ([3]; 125 g ai/ha, visual rating after 13 to 15 days) | Plant response rating, Nutsedge, Yellow [7, 19] | Plant response rating, Cupgrass, Woolly [14, 20]
